Our source for the AC50, IC50 and EC50 values is ChEMBL document CHEMBL1201862, “PubChem BioAssay data set” (2004).

One assay is described as follows: cells. The note with it: HEK293.
Another assay has as its target Albumin (Bos taurus, UniProt P02769). Briefly: Counterscreen for inhibitors of T-cell receptor (TCR)-CD3 interaction: Fluorescence-based biochemical high throughput dose response assay to identify inhibitors of T-cell receptor (TCR)-CD3 interaction using a TAMRA-labeled BSA probe. The assay is classed as functional.
The next assay addresses Paired box protein Pax-8 (Homo sapiens, UniProt Q06710). Put plainly: PAX8 transcriptional activity inhibition in RMG-I – RMG-I cells, luciferase, cherry-pick, dose response (AID 687027).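 Note: luciferase reporter driven by Pax8 target thyroperoxidase promoter measured by SteadyGlo luminescence.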 The assay is classed as functional, cell-based.
Assay [1] can be described thus: IGROV1 cell killing – plate reader, dry powder samples, PAX8 inhibitor project, dose response (AID 743043). The assay is classed as functional, cell-based. As to conditions: IGROV-1.
Assay [2] in a line: OVCAR8 cell viability loss – plate reader, dry powder samples, PAX8 project, dose response (AID 743197). The format is functional, cell-based. The note with it: OVCAR-8.
A short description of assay [3]: toxicity toward immortalized ovarian surface epithelium – cell-based, plate reader, dry powder samples, cytotoxicity control for PAX8 inhibitor project, dose response (AID 743045). The format is functional.
For assay [4], the target named is Metabotropic glutamate receptor 3 (Rattus norvegicus, UniProt P31422). Briefly: inhibition of rat mGlu3 glutamate signaling – HEK/GIRK cells, thallium flux, dose response (AID 651839). The assay is classed as functional.
In assay [5] the target is T1, Replicative DNA helicase DnaB (Mycobacterium tuberculosis, UniProt P9WMR3).
T1 sequence (P9WMR3 whole entry): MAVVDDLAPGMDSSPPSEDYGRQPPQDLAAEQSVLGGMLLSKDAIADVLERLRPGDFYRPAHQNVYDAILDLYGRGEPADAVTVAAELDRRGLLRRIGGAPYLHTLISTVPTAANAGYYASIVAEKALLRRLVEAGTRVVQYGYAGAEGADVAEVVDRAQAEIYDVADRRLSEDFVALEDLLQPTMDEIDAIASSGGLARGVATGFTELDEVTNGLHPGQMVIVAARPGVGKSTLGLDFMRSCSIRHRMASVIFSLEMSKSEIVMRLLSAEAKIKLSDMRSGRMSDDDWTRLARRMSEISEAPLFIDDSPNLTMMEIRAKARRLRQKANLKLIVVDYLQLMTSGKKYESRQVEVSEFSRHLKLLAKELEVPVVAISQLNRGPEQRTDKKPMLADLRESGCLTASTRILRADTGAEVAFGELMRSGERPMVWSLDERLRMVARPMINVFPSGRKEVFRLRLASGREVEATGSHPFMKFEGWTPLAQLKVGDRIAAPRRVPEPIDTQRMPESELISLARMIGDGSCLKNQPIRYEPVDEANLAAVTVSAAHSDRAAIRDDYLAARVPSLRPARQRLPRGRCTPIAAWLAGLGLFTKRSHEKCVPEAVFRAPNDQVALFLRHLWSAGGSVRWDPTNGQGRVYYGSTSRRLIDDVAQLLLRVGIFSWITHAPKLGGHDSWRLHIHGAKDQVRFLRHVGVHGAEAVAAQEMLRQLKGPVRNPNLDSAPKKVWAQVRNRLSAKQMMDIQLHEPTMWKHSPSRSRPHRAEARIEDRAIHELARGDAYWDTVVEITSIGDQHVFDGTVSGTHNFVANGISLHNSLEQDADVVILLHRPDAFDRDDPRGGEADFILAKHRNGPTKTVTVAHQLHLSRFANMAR
Put plainly: DnaB intein splicing inhibitors, dose response, biochemical, cell-free fluorescence (AID 449749). The assay is classed as functional.

For another assay, the target named is T2, Protein RecA (Mycobacterium tuberculosis, UniProt P9WHJ3).
T2 sequence (P9WHJ3 whole entry): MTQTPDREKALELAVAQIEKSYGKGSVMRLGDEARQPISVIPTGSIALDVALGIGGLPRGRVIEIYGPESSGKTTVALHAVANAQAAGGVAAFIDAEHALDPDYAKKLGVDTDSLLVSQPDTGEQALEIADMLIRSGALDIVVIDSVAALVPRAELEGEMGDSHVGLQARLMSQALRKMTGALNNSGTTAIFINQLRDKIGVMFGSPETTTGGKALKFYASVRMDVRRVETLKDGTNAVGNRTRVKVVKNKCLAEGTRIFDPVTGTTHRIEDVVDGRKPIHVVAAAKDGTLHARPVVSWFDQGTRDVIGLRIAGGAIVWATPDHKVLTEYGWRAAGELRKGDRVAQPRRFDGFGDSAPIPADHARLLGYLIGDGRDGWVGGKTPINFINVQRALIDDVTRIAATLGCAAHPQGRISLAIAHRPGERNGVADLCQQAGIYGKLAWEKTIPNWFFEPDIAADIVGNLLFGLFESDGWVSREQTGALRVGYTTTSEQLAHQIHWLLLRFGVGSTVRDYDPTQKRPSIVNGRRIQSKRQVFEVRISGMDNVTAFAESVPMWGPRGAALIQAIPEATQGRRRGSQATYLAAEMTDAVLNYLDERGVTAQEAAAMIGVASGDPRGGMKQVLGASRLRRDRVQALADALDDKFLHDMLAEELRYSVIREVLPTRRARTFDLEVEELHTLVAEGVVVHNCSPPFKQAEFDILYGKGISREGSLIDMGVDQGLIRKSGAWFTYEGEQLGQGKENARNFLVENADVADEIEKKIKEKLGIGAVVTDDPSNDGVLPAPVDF
Briefly: Fluorescence Cell-Free Homogeneous Dose Retest to Identify Inhibitors of RecA-Intein Splicing Activity. [Related pubchem assays (depositor defined):AID2097, AID2223, AID489010, AID492950]. The format is functional.

The target in assay [6] is Tyrosyl-DNA phosphodiesterase 2 (Homo sapiens, UniProt O95551). Briefly: potency against TDP2 phosphodiesterase activity – biochemical, epi absorbance, IC50, dose response (AID 743297).
The next assay has as its target Genome polyprotein (dengue virus type 2, UniProt P29990). Briefly: flavivirus cap methylation enzyme inhibition – biochemical, confirmation dose response, primary screen (AID 588689). The assay is classed as functional.
The target in assay [7] is 1-phosphatidylinositol 4,5-bisphosphate phosphodiesterase beta-3 (Homo sapiens, UniProt Q01970). Put plainly: Fluorescence-based biochemical high throughput dose response assay to identify inhibitors of phospholipase C isozymes (PLC-B3).
For assay [8], the target named is 1-phosphatidylinositol 4,5-bisphosphate phosphodiesterase gamma-1 (Homo sapiens, UniProt P19174). Put plainly: Counterscreen for inhibitors of phospholipase C isozymes (PLC-B3): Fluorescence-based biochemical high throughput dose response assay to identify inhibitors of phospholipase C isozymes (PLC-gamma1).

SMILES strings stand for the structures. Activity calls are given as the source filed them.

Metabotropic glutamate receptor 3, sequence (P31422 whole entry): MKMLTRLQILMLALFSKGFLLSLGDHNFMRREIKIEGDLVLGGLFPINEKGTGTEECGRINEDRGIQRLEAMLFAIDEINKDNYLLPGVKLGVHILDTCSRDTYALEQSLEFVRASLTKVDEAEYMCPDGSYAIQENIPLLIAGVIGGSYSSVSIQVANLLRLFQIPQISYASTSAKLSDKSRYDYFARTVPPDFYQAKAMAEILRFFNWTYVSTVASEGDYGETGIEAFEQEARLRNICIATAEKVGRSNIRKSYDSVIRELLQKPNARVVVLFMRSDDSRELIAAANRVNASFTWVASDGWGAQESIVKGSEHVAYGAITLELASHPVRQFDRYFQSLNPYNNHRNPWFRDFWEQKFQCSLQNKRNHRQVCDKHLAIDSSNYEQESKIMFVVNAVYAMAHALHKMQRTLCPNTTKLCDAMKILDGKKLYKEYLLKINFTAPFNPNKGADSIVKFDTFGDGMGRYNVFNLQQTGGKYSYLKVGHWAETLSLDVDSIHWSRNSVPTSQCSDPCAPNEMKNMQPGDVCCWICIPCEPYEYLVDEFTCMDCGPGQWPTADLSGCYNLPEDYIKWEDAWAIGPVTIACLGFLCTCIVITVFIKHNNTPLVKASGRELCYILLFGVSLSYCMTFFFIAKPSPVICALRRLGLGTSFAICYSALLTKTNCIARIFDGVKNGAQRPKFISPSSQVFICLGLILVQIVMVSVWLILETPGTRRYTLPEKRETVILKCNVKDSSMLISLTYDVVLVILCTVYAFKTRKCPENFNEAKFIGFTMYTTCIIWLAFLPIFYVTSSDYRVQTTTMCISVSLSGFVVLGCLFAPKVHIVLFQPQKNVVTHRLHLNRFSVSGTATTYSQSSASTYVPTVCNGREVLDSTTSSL
Albumin, sequence (P02769 whole entry): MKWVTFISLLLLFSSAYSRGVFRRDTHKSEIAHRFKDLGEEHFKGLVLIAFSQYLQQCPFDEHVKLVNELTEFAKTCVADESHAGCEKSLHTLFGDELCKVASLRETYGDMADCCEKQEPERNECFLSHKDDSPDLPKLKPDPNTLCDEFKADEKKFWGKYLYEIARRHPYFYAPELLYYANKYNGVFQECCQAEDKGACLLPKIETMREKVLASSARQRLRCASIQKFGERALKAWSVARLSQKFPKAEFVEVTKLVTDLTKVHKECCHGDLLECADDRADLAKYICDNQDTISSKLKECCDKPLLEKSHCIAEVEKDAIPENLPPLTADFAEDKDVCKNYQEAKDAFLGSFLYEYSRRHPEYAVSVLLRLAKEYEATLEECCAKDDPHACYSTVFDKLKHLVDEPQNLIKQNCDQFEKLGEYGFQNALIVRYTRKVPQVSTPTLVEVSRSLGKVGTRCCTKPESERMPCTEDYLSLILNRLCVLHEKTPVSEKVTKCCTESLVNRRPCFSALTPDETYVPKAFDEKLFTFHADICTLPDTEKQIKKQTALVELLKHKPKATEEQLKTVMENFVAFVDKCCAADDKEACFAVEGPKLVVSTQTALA
1-phosphatidylinositol 4,5-bisphosphate phosphodiesterase beta-3, sequence (Q01970 whole entry): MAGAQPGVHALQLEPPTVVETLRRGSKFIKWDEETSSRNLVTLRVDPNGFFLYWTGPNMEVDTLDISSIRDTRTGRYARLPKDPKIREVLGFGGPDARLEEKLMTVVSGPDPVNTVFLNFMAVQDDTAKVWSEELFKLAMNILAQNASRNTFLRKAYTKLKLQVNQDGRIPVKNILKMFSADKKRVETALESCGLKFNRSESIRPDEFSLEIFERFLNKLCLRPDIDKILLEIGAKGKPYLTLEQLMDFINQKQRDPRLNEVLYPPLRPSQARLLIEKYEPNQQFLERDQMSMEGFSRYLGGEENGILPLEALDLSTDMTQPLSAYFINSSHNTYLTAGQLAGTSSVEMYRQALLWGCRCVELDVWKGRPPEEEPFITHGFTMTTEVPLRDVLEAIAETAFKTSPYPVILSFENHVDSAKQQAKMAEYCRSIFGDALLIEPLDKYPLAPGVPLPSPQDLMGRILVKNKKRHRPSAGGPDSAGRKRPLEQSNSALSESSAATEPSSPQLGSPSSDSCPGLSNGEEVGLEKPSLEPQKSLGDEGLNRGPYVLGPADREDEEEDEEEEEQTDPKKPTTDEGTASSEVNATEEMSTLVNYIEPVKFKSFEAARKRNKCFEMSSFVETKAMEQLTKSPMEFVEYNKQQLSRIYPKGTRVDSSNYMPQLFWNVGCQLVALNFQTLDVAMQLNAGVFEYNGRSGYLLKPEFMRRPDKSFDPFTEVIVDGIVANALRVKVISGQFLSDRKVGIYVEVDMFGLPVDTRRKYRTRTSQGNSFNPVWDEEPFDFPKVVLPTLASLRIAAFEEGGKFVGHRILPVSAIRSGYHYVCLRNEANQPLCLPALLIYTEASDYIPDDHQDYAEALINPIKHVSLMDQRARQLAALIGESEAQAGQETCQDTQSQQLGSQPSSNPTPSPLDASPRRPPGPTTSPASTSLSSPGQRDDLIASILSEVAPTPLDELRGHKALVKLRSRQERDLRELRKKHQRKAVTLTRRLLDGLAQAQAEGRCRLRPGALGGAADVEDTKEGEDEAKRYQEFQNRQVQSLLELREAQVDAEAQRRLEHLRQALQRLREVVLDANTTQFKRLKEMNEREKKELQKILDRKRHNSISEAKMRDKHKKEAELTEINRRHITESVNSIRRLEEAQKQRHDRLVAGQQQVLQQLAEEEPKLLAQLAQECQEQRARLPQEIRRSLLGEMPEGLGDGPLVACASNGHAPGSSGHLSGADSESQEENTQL
Genome polyprotein, sequence (P29990 2492-3391 limits assumed): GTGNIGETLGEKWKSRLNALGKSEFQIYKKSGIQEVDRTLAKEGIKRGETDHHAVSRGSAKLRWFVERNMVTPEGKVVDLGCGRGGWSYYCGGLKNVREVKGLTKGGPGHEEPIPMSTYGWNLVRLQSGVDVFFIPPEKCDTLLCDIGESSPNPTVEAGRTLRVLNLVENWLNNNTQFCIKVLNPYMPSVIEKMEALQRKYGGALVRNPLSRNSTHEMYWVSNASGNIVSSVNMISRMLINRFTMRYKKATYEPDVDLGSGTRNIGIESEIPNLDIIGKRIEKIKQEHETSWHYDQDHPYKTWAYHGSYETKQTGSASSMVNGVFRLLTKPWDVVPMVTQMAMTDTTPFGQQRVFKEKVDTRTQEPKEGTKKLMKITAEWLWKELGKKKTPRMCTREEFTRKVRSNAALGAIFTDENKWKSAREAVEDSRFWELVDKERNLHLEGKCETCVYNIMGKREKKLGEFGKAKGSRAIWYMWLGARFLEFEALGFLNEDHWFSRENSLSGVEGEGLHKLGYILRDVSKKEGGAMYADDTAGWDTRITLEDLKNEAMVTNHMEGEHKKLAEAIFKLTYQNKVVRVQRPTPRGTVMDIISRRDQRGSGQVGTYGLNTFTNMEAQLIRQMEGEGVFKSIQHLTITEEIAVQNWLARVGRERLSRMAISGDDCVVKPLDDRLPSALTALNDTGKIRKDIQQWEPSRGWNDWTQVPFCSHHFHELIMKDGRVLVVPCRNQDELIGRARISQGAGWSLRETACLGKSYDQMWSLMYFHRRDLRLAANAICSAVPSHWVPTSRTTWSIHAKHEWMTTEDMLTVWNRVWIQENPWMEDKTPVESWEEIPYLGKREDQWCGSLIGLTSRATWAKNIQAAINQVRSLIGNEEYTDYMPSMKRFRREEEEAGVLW
Tyrosyl-DNA phosphodiesterase 2, sequence (O95551 whole entry): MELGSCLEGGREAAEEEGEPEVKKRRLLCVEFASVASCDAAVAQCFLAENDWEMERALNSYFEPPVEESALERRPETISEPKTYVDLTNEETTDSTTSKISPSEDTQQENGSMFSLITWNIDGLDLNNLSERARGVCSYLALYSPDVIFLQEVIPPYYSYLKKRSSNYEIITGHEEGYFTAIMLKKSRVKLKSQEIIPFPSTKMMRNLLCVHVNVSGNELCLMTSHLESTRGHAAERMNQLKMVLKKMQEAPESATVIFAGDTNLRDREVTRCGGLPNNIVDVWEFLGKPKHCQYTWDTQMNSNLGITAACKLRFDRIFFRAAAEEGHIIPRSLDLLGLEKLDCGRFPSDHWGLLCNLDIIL
Paired box protein Pax-8, sequence (Q06710 whole entry): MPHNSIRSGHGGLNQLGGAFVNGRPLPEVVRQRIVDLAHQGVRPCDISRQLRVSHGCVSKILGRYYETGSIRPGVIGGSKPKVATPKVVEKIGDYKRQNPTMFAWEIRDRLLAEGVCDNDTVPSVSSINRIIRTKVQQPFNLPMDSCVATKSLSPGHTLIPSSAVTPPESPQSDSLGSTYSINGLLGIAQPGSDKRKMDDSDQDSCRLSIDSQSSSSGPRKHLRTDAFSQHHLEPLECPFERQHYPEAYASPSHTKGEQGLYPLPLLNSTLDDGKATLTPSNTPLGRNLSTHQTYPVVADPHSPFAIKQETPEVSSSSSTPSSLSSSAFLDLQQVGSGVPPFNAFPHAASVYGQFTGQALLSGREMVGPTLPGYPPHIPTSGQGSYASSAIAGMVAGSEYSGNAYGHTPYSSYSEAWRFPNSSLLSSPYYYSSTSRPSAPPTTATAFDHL

In the case of `CCN1C(=O)c2cccc3c(S(=O)(=O)N(C)C)ccc1c23`, in “cells”, the AC50 was > 52 µM (inactive).
On to `Cc1c(C(=O)NNC(=O)c2ccccc2O)oc2ccccc12`, for which the IC50 at Albumin is > 94 µM (inactive).
Turning to `O=C(C[C@@H]1CC[C@@H]2[C@H](COC[C@H](O)CN2S(=O)(=O)c2ccccc2Cl)O1)N1CCC(Cc2ccccc2)CC1`, the AC50 is 13.3 µM (active) at Paired box protein Pax-8, 37.6 µM (active) in [1], 44.9 µM (active) in [2] and 31.5 µM (active) in assay [3].
As for `COc1ccc(C#Cc2ccc(C(=O)N3CCCC(OC)C3)cc2)cc1` (stereo not given), in assay [4], the IC50 was 7.15 µM (active).
Consider `COc1ccc(C(c2c(C)[nH]n(-c3ccccc3)c2=O)c2c(C)[nH]n(-c3ccccc3)c2=O)cc1OC`, for which, in assay [5], the AC50 was 1.22 µM (active). At Protein RecA, the EC50 is 688 nM (active). Also, the IC50 is 95.2 µM (inactive) in assay [6] and 35.9 µM (active) at Genome polyprotein.
As for `Cc1ccc(OCCn2c(CCNC(=O)C3CCCCCC3)nc3ccccc32)cc1`, the IC50 in assay [7] and in assay [8] was > 123 µM (inactive) in each case.
`O=C(c1ccc2cc(-c3cccc(OCc4ccccc4)c3)ccc2c1)N1CCCC(CO)C1` (stereo not given): in [4], the IC50 was 1.08 µM (inactive).
Turning to `C/N=C(\S)NNC(=O)c1cccn(Cc2cccc(Cl)c2)c1=O`, the IC50 on Albumin was > 94.1 µM (inactive).
